Experimental findings from patent publication US8969565B2, “Imidazo[1,2-b]pyridazine-based compounds, compositions comprising them, and methods of their use” (Lexicon Pharmaceuticals, Inc., priority 2012, dated 2015) are described below.

The first assay deals with T1, AAK1 (Homo sapiens, UniProt Q2M2I8).
T1 construct: HA; expressed in transfected cells; host or cells: HEK293F
T1 sequence (Q2M2I8 1-863 isoform Q2M2I8-2): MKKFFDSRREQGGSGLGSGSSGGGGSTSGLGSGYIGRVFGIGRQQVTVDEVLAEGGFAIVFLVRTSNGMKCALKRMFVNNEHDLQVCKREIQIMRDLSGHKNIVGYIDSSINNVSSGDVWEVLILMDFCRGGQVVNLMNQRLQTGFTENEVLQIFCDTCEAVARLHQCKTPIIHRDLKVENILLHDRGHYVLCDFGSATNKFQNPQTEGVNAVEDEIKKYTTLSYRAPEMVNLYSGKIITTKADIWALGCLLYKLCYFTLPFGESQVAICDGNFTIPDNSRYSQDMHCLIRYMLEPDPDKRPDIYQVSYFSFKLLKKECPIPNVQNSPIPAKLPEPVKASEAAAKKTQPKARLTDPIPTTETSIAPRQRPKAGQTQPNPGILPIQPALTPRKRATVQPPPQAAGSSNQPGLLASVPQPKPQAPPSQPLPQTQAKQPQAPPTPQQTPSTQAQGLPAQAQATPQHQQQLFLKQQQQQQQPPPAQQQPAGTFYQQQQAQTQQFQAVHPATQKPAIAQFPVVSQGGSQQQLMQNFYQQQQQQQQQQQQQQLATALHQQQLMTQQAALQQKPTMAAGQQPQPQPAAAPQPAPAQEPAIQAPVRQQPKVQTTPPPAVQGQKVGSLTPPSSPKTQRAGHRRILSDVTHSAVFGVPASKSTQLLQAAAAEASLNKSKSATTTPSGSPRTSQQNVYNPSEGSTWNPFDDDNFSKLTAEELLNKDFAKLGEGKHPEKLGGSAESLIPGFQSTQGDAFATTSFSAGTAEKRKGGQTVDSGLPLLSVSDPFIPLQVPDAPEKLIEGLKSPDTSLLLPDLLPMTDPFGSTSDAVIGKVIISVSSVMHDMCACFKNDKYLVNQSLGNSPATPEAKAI
Description: HEK281 cell-based assay (phospho-mu2 Western blot in transfected HEK293F cells). The note with it: 3 hours incubation, read-out: CBA IC50. The gist of the method:
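HEK293F cells co-transfected with full-length human AAK1/HA and Flag/AP2M1 were treated next day with 5 compound concentrations (3-fold dilutions) in DMEM+0.5% FBS for 3 hours at 37° C. Lysates were Western blotted for phospho-mu2, with total mu2 detected by anti-Flag.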
With `COC(=O)N(CCNc1ccc2ncc(-c3ccncc3OC)n2n1)C(C)C` [methyl isopropyl(2-((3-(3-methoxypyridin-4-yl)imidazo[1,2-b]pyridazin-6-yl)amino)ethyl)carbamate], the IC50 (usually the concentration at which inhibition is half-maximal) is not above 10 nM.
Regarding `CCCOC(=O)N(CCNc1ccc2ncc(-c3ccncc3OC)n2n1)C(C)C` [propyl isopropyl(2-((3-(3-methoxypyridin-4-yl)imidazo[1,2-b]pyridazin-6-yl)amino)ethyl)carbamate], the IC50 is not above 1000 nM.
On the same count and under the same terms, for `CC(C)(C)OC(=O)N1CCCC1CCNc1ccc2ncc(-c3ccc(CN)cc3)n2n1` (stereo not drawn) [tert-butyl 2-(2-((3-(4-(aminomethyl)phenyl)imidazo[1,2-b]pyridazin-6-yl)amino)ethyl)pyrrolidine-1-carboxylate] the value was not above 10 nM; for `CC(C)(C)OC(=O)N1CCCC1CCNc1ccc2ncc(-c3ccc(C(N)=O)cc3)n2n1` (stereo not drawn) [tert-butyl 2-(2-((3-(4-carbamoylphenyl)imidazo[1,2-b]pyridazin-6-yl)amino)ethyl)pyrrolidine-1-carboxylate], not above 100 nM.
On to `COc1cnccc1-c1cnc2ccc(N3CCN(C(=O)OC(C)(C)C)CC3)nn12` [tert-butyl 4-(3-(3-methoxypyridin-4-yl)imidazo[1,2-b]pyridazin-6-yl)piperazine-1-carboxylate], for which the IC50 was not above 10 nM.
With `CC(C)(C)OC(=O)N1CCN(c2ccc3ncc(Cl)n3n2)CC1` [tert-butyl 4-(3-chloroimidazo[1,2-b]pyridazin-6-yl)piperazine-1-carboxylate], the IC50 is not above 100 nM.
Take `CN(CCNc1ccc2ncc(-c3ccnc(N)c3)n2n1)C(=O)OC(C)(C)C` [tert-butyl (2-((3-(2-aminopyridin-4-yl)imidazo[1,2-b]pyridazin-6-yl)amino)ethyl)(methyl)carbamate]: the IC50 was not above 10 nM.
With `CN(CCNc1ccc2ncc(-c3ccccc3F)n2n1)C(=O)OC(C)(C)C` [tert-butyl (2-((3-(2-fluorophenyl)imidazo[1,2-b]pyridazin-6-yl)amino)ethyl)(methyl)carbamate], the IC50 is not above 100 nM.
On the same count and under the same terms, with `CN(CCNc1ccc2ncc(-c3ccnc(F)c3)n2n1)C(=O)OC(C)(C)C` [tert-butyl (2-((3-(2-fluoropyridin-4-yl)imidazo[1,2-b]pyridazin-6-yl)amino)ethyl)(methyl)carbamate] the figure was not above 100 nM; with `COc1ccccc1-c1cnc2ccc(NCCN(C)C(=O)OC(C)(C)C)nn12` [tert-butyl (2-((3-(2-methoxyphenyl)imidazo[1,2-b]pyridazin-6-yl)amino)ethyl)(methyl)carbamate], not above 100 nM; with `CN(CCNc1ccc2ncc(-c3cccc(C(N)=O)c3)n2n1)C(=O)OC(C)(C)C` [tert-butyl (2-((3-(3-carbamoylphenyl)imidazo[1,2-b]pyridazin-6-yl)amino)ethyl)(methyl)carbamate], not above 100 nM.
Turning to `COc1cccc(-c2cnc3ccc(NCCN(C)C(=O)OC(C)(C)C)nn23)c1` [tert-butyl (2-((3-(3-methoxyphenyl)imidazo[1,2-b]pyridazin-6-yl)amino)ethyl)(methyl)carbamate], the IC50 was not above 100 nM.
The same measure, in the same setting: with `COc1cnccc1-c1cnc2ccc(NCCN(C)C(=O)OC(C)(C)C)nn12` [tert-butyl (2-((3-(3-methoxypyridin-4-yl)imidazo[1,2-b]pyridazin-6-yl)amino)ethyl)(methyl)carbamate] the figure was not above 1000 nM; with `CC(C)(C)OC(=O)NCCNc1ccc2ncc(-c3ccc(CN)cc3)n2n1` [tert-butyl (2-((3-(4-(aminomethyl)phenyl)imidazo[1,2-b]pyridazin-6-yl)amino)ethyl)carbamate], not above 100 nM.
For the compound `CN(CCNc1ccc2ncc(-c3ccc(CC#N)cc3)n2n1)C(=O)OC(C)(C)C` [tert-butyl (2-((3-(4-(cyanomethyl)phenyl)imidazo[1,2-b]pyridazin-6-yl)amino)ethyl)(methyl)carbamate], the concentration for half-maximal inhibition (IC50) was not above 100 nM.
With `CC(C)N(CCNc1ccc2ncc(-c3ccc(C(N)=O)cc3)n2n1)C(=O)OC(C)(C)C` [tert-butyl (2-((3-(4-carbamoylphenyl)imidazo[1,2-b]pyridazin-6-yl)amino)ethyl)(isopropyl)carbamate], the IC50 is not above 10 nM.
Still for that read-out and setting: for `CC(=O)c1ccc(-c2cnc3ccc(NCCN(C)C(=O)OC(C)(C)C)nn23)s1` [tert-butyl (2-((3-(5-acetylthiophen-2-yl)imidazo[1,2-b]pyridazin-6-yl)amino)ethyl)(methyl)carbamate] the value was not above 10 nM; for `CN(CCCNc1ccc2ncc(-c3ccc(CN)cc3)n2n1)C(=O)OC(C)(C)C` [tert-butyl (3-((3-(4-(aminomethyl)phenyl)imidazo[1,2-b]pyridazin-6-yl)amino)propyl)(methyl)carbamate], not above 100 nM; for `CC(=O)c1ccc(-c2cnc3ccc(NCCCN(C)C(=O)OC(C)(C)C)nn23)s1` [tert-butyl (3-((3-(5-acetylthiophen-2-yl)imidazo[1,2-b]pyridazin-6-yl)amino)propyl)(methyl)carbamate], not above 100 nM.
On the same count and under the same terms, for `COc1cnccc1-c1cnc2ccc(NCCN(C(=O)OC(C)(C)C)C(C)C)nn12` [tert-butyl isopropyl(2-((3-(3-methoxypyridin-4-yl)imidazo[1,2-b]pyridazin-6-yl)amino)ethyl)carbamate] the value was not above 100 nM.
Regarding `CNC(=O)c1ccc(-c2cnc3ccc(NCCN(C)C(=O)OC(C)(C)C)nn23)cc1` [tert-butyl methyl(2-((3-(4-(methylcarbamoyl)phenyl)imidazo[1,2-b]pyridazin-6-yl)amino)ethyl)carbamate], the IC50 was not above 100 nM.
Same read-out and setting: with `CN(CCNc1ccc2ncc(-c3ccc(C4CCCN4)cc3)n2n1)C(=O)OC(C)(C)C` (stereo not drawn) [tert-butyl methyl(2-((3-(4-(pyrrolidin-2-yl)phenyl)imidazo[1,2-b]pyridazin-6-yl)amino)ethyl)carbamate] the figure was not above 10 nM; with `CN(CCNc1ccc2ncc(-c3ccncc3)n2n1)C(=O)OC(C)(C)C` [tert-butyl methyl(2-((3-(pyridin-4-yl)imidazo[1,2-b]pyridazin-6-yl)amino)ethyl)carbamate], not above 100 nM.

The target in the next assay is T1, AAK1. Kind of assay: P81 filter plate assay. The format is biochemical. To be noted: full-length human AAK1, Mu2 substrate. As to the method:
Compounds were serially diluted into a Labcyte LDV plate (Labcyte, cat#LP-0200) using a Mutiprobe (PerkinElmer) and Biomek FX (Beckman Coulter) so that the highest compound concentration was at 96 μM. Compounds were then pinged (75 nL per well) into a Greiner 384-well reaction plate (Greiner, #781076) using an ECHO 550 Liquid Handler (Labcyte). A total of 12 μl reaction buffer (IMAP buffer containing Tween and DTT, from Molecular Devices) was then added to each well of columns 1 and 13 for the negative controls and 12 μl of 2×AAK1 (0.2 nM full-length human protein, NCBI accession no. NP_055726.2) was added to the remaining wells. Enzyme was then pre-incubated with compound for 10 minutes at RT. Reactions were initiated upon Minitrak (PerkinElmer) addition of 12 μl substrate mix containing 2×Mu2 (0.2 μM, full length human protein), 2× cold ATP (2 μM), and 1.3 μCi of hot ^33P-ATP. Reactions proceeded for one hour at RT. Meanwhile, Millipore 384-well P81 filter plates (Millipore, catalog #MZPHNOW10) were placed on a plate washer (Zoom ZW, from Titertek) and pre-wet with 50 μl 1% phosphoric acid. Kinase reactions were then stopped upon addition of 24 μl of 2% phosphoric acid to each well and the Minitrak was then used to transfer 40 μl from each well into the pre-wet Millipore 384-well P81 filter plates. Reaction mixtures were incubated for 10 minutes at RT in the P81 plates, followed by washing five times with 100 μl/well of 1% phosphoric acid using the Zoom filter washer. The bottom of each filter plate was sealed followed by addition of 20 μl Microscint 40 to each well, sealing the top of the plates with Flashplate cover, and then waiting one hour until reading on the TopCount (PerkinElmer).
Turning to `CC(=O)c1cnc2ccc(N3CCN(C(=O)C4(N)CCCC4)CC3)nn12` [1-(6-(4-(1-aminocyclopentanecarbonyl)piperazin-1-yl)imidazo[1,2-b]pyridazin-3-yl)ethanone], the IC50 was not above 100 nM.
On the same count and under the same terms, with `CC(C)(C)C(=O)N1CCN(c2ccc3ncc(-c4ccccc4)n3n2)CC1` [2,2-dimethyl-1-(4-(3-phenylimidazo[1,2-b]pyridazin-6-yl)piperazin-1-yl)propan-1-one] the figure was not above 100 nM; with `O=C(OC1CCOC1)N1CCC[C@H]1CNc1ccc2ncc(-c3ccncc3)n2n1` (stereo partly drawn) [(2S)-tetrahydrofuran-3-yl 2-(((3-(pyridin-4-yl)imidazo[1,2-b]pyridazin-6-yl)amino)methyl)pyrrolidine-1-carboxylate], not above 10 nM; with `O=C(OC1CCOC1)N1CCC[C@H]1CNc1ccc2ncc(Br)n2n1` (stereo partly drawn) [(2S)-tetrahydrofuran-3-yl 2-(((3-bromoimidazo[1,2-b]pyridazin-6-yl)amino)methyl)pyrrolidine-1-carboxylate], not above 10 nM.
On to `OCc1ccc(-c2cnc3ccc(NCCOC4CCCC4)nn23)cc1` [(4-(6-((2-(cyclopentyloxy)ethyl)amino)imidazo[1,2-b]pyridazin-3-yl)phenyl)methanol], for which the IC50 is not above 10 nM.
The compound `CC(C)CC(=O)N1CCC[C@H]1CNc1ccc2ncc(-c3ccnc(F)c3)n2n1` [(S)-1-(2-(((3-(2-fluoropyridin-4-yl)imidazo[1,2-b]pyridazin-6-yl)amino)methyl)pyrrolidin-1-yl)-3-methylbutan-1-one] had an IC50 not above 10 nM.
For the compound `CC(C)CC(=O)N1CCC[C@H]1CNc1ccc2ncc(C3=CCCC3)n2n1` [(S)-1-(2-(((3-(cyclopent-1-en-1-yl)imidazo[1,2-b]pyridazin-6-yl)amino)methyl)pyrrolidin-1-yl)-3-methylbutan-1-one], the IC50 was not above 10 nM.
`CCCC(=O)N1CCC[C@H]1CNc1ccc2ncc(-c3ccncc3)n2n1` [(S)-1-(2-(((3-(pyridin-4-yl)imidazo[1,2-b]pyridazin-6-yl)amino)methyl)pyrrolidin-1-yl)butan-1-one] gave an IC50 not above 10 nM.
In the case of `CC(C)(C)CCN1C(=O)CC[C@H]1CNc1ccc2ncc(-c3ccncc3)n2n1` [(S)-1-(3,3-dimethylbutyl)-5-(((3-(pyridin-4-yl)imidazo[1,2-b]pyridazin-6-yl)amino)methyl)pyrrolidin-2-one], the IC50 was not above 10 nM.
`COc1ncccc1-c1cnc2ccc(N3CC[C@H](O)C3)nn12` [(S)-1-(3-(2-methoxypyridin-3-yl)imidazo[1,2-b]pyridazin-6-yl)pyrrolidin-3-ol] displayed an IC50 not above 1000 nM.
